Where “and” joins values, the source holds several entries; their conditions need not be identical. Equal values may be shown once. Entries after “also recorded” stand apart in the source; their conditions may differ.
Legend:
[1] = tested on: HuCCT-1 tumors; experiment: HuCCT-1 xenograft tumor growth; format: in vivo, athymic (nu+/nu+) mice; conditions: single agents: gefitinib 150 mg/Kg i.p. days 1-5 and 8-12, CI-1040 150 mg/Kg twice a day oral days 1-14
Protocol: (§1) Four to 6-week-old female athymic (nu+/nu+) mice were purchased from Harlan (Harlan Laboratories, Washington, D.C.). The research protocol was approved by the Johns Hopkins University Animal Care Committee and animals were maintained in accordance with the guidelines of the American Association of Laboratory Animal Care. […] Mice were monitored daily for signs of toxicity and were weighed three times per week. Tumor size was evaluated three times per week by caliper measurements using the following formula: tumor volume=[length×width^2]/2. Tumor growth inhibition was calculated by tumor volume of treated mice divided by tumor volume of control mice. Experiments were terminated on day 14.
To explore the feasibility of implementing this method in in vivo studies, mouse xenografts were next employed to test whether FNAB material obtained from tumor tissue can be utilized to monitor and predict therapy response in vivo. For this purpose HuCCT-1 cholangiocarcinoma cells were used to create a xenograft mouse model of human cholangiocarcinoma. […] Tumor volumes were measured and compared with tumors from animals that received drug vehicle alone.

[2] = tested on: ERK1/2; experiment: HuCCT-1 xenograft tumor FNAB phospho-/total ERK1/2 ELISA; format: in vivo, human
Protocol: as §1
(§2) Total cell lysates were obtained from either cells cultured in vitro or from tumor FNAB samples. […] Immunoreactive proteins were visualized by enhanced chemiluminescence (Amersham International, United Kingdom). Total and phospho-ERK1/2 proteins were quantified by sandwich [LISA kits (BioSource International, Camarillo, Calif., USA) as described in the manufacturer's protocols. The reaction was read at 450 nm in an ELISA plate reader.
Western blot analysis of protein samples is a conventional method for phosphoprotein analysis, but is limited in throughput, quantitative precision and requires large sample amounts. ELISA assays offer alternatives to Western blot with higher throughput and increased sensitivity. […] For this purpose the tumor FNAB samples, which have been analyzed on Western blot above (FIG. 16A), were used to assess the expression and phosphorylation of ERK1/2 proteins by the total and phospho-specific ERK1/2 ELISA assays, respectively.
The amounts of phosphorylated ERK1/2 were normalized for the total contents of these proteins in each sample group and therapy-mediated changes in their phosphorylation status were quantified.

[3] = tested on: ERK1/2; experiment: HuCCT-1 xenograft tumor FNAB Western blot, ERK1/2 activity; format: in vivo, human
Protocol: as §1
Fine needle aspirates were obtained with a 25G needle and 10 ml syringe, passing the needle through the tumor 10 times with application of 1-2 ml suction The aspirated material was expressed onto clear glass slides and smeared. All smears were allowed to air dry and then stained with Diff-Quik stain (Baxter Healthcare, Miami, Fla.). Five to ten AD/DQ-stained cytological smears were prepared from each tumor sample. The cellular composition of each aspirate was assessed by cytopathologists.
as §2
Next, whether FNAB samples obtained from tumor tissue at the early stage of therapy can be used to predict tumor response was examined. […] Expression and phosphorylation levels of ERK 1/2 were analyzed on Western blot by using extracts prepared from AD/DQ-stained FNAB samples.

[4] = tested on: ERK1/2; experiment: Phospho-/total ERK1/2 ELISA in EGF-stimulated T-47D cell smears; format: cell-based, human; conditions: T-47D cells, AG1478 0.5 uM, PD98059 20 uM
Protocol: T47D cells were maintained in Dulbecco's modified Eagle's medium (Life Technologies, Inc.) supplemented with 10% fetal calf serum and antibiotics (Life Technologies, Inc.). Prior to EGF (Sigma) stimulation, cells were starved for 24 h in serum-free medium.
Total cell lysates were obtained from either cells cultured in vitro or from tumor FNAB samples. Protein extracts were resolved by 4-15% SDS-PAGE and probed with Rabbit anti-EGFR, anti-phospbo-EGFR, anti-ERK1 and anti-phospho-ERK antibodies obtained from New England Biolabs (Beverly, Mass.). Immunoreactive proteins were visualized by enhanced chemiluminescence (Amersham International, United Kingdom). Total and phospho-ERK1/2 proteins were quantified by sandwich [LISA kits (BioSource International, Camarillo, Calif., USA) as described in the manufacturer's protocols. The reaction was read at 450 nm in an ELISA plate reader.
Western blot analysis of protein samples is a conventional method for phosphoprotein analysis. However, Western blot analysis is limited in throughput and quantitative precision, and also requires large sample amounts. […] Therefore, it was tested if quantitative ELISA assays can be applied to cytologic samples to increase the assay sensitivity to measure the expression levels and activation status of specific signaling pathways. […]

[5] = tested on: ERK1/2; experiment: Ex vivo FNAB drug sensitivity assay, ERK1/2 phosphorylation by Western blot; format: cell-based, human
Protocol: Tumor cells were collected by FNAB from the xenograft animals before the start of treatment using a sterile 25G short needle. Tumor samples were immediately transferred into 10 ml sterile prewarmed complete RPMI-1640 culture medium containing 10% FBS, penicillin (200 μg/ml), and streptomycin (200 μg/ml). Cells were incubated with 0.04% trypan blue (Sigma) dissolved in PBS (9.1 mM Na2HPO4, 1.7 mM NaH2PO4, and 150 mM NaCl, pH 7.4). The viable (membrane-intact) and dead cells were then counted using Neubauer hemocytometer and the total viable cell count was used to calculate final working volumes. Approximately 25,000 viable tumor cells were seeded into each well of a 6-well polypropylene microplate. Cells were treated in duplicates with vehicle (control), erlotinib (5 μM) or temsirolimus (1 μM) in a humidified 5% CO2 incubator at 37° C. for 6 hours. No fibroblast and endothelial cell growth was observed. Following treatment, non-adherent and adherent cells (only a few, collected by scraping) were pooled together and centrifuged at 500×g for 5 min at 4° C. After washing with PBS, cells were lysed in 100 μL of ice-cold lysis buffer (50 mM Tris-HCl, 0.25M NaCl, 0.1% (v/v) Triton X-100, 1 mM EDTA, 50 mM NaF, and 0.1 mM Na3VO4, pH 7.4) containing protease and phosphatase inhibitors (Roche Molecular Biochemicals) and analyzed by Western blot.
Protein concentrations obtained from FNAB samples were quantified before each experiment. Protein extracts (15 μg) were electrophoresed on a 10% (w/v) SDS-polyacrylamide gel. After electrotransfer to Immobilon-P membranes (Millipore), membranes were blocked at room temperature using SuperBlock (Pierce) for one hour. The primary antibodies were diluted at 1:1000 in 1:10 dilution of SuperBlock solution and the membranes were incubated with primary antibodies overnight at 4° C. The antibodies tested were phospho-ERK1/2 (Cell signal #9101), phospho-S6 Ribosomal Protein (Cell Signaling Technology, Beverly, Mass.) and total ERK1/2 (Cell Signaling Technology, Beverly, Mass.) and total S6 Ribosomal Protein (Cell Signaling Technology, Beverly, Mass.). The next day, the membranes were washed and incubated for 1 h at room temperature with horseradish peroxidase (HRP)-conjugated secondary antibodies, rabbit IgG-HRP (Santa Cruz Biotechnology), or mouse IgG-HRP (Santa Cruz Biotechnology) at a final dilution of 1:3000. Antibody binding was visualized using enhanced chemiluminescence (SuperSignal West Pico, Pierce) and autoradiography.
To test if tumor cells obtained by FNAB can be used in the ex vivo assays to predict tumor response in vivo, 25,000 viable cancer cells, as determined by trypan blue dye exclusion, were treated with erlotinib or temsirolimus for six hours, after which signal pathway inhibition was analyzed by Western blot. Under these cell culture conditions no fibroblast and endothelial cell growth was detected (data not shown).
To determine whether standard clinical FNAB specimens provide adequately cellular tumor samples to perform ex vivo prediction assays, adenocarcinoma cells were collected by ultrasound or computer tomography-guided FNAB technique from pancreatic cancer patients during routine diagnostic procedures. Tumor cells were isolated by centrifugation from the needle rinse suspensions and treated with vehicle (control), erlotinib, or temsirolimus ex vivo for six hours.

[6] = tested on: primary human pancreatic cancer xenograft tumors; experiment: Tumor growth (RTG) in xenograft mouse models of primary human pancreatic cancer; format: in vivo, athymic (nu+/nu+) mice
Description: Four-week-old female athymic (nu+/nu+) mice were purchased from Harlan (Harlan Laboratories, Washington, D.C.). The research protocol was approved by the Johns Hopkins University Animal Care and Use Committee and animals were maintained in accordance to guidelines of the American Association of Laboratory Animal Care. Briefly, frozen pancreatic xenografts in first passage in mice, after being obtained from surgical specimens of patients undergoing pancreatic resection for adenocarcinoma at the Johns Hopkins Hospital were re-implanted subcutaneously in groups of 5 mice for each patient, with 2 small pieces per mouse (F2 generation). Tumors were allowed to grow to a size of 1.5 cm at which point they were harvested, divided into small ˜3×3×3 mm pieces, and transplanted to another 18-22 mice, with two tumors per mouse. Tumors from this second mouse-to-mouse passage were allowed to grow until reaching −200 mm^3, at which time mice were randomized in the following three treatment groups, with 6 mice in each group: control (vehicle), erlotinib (50 mg/kg/day i.p.), and temsirolimus (20 mg/kg days 1-5 i.p.). Mice were monitored daily for signs of toxicity and were weighed three times per week. Tumor size was evaluated three times per week by caliper measurements using the following formula: tumor volume=[length×width^2]/2 as previously reported (19). Relative tumor growth (RTG) was calculated by tumor growth of treated mice divided by tumor growth of control mice (T/C)×100. Experiments were terminated on day 28. Tumor response was defined as sensitive, when RTG was less than 50% on day 28.

Structure (SMILES): O=C(NOCC1CC1)c1ccc(F)c(F)c1Nc1ccc(I)cc1Cl [CI-1040]
- decrease in tumor volume [1]: 11%
- phosphorylation levels of ERK1/2 by phospho-ERK1/2 ELISA (raw data) ([2]; HuCCT-1 tumor FNAB samples of treated animals): neither gefitinib nor CI-1040 treatment alone caused any significant change
- decrease of ERK1/2 phosphorylation (normalized for total ERK1/2) ([2]; HuCCT-1 tumor FNAB, CI-1040 alone): 19%
- ERK1/2 activity (phospho-ERK1/2 immunoblot) ([3]; HuCCT-1 tumor FNAB samples of treated mice, gefitinib, CI-1040 alone or combined): only a slight inhibition in ERK1/2 activity
- ERK1/2 activity, serial FNAB sampling ([3]; combination: as early as 6 h after first administration, sustained for two weeks, single agents: 6 h or 5 d): neither of these agents alone caused inhibition

Structure (SMILES): COc1cccc(-c2cc(=O)c3ccccc3o2)c1N [PD98059]
- inhibition of EGF-induced ERK1/2 phosphorylation (phospho-ELISA normalized for total ERK1/2) [4]: 50% and 60%

Structure (SMILES): C#Cc1cccc(Nc2ncnc3cc(OCCOC)c(OCCOC)cc23)c1 [erlotinib]
- ERK1/2 activation ex vivo ([5]; all resistant tumors of the xenograft panel, erlotinib 5 μM, 6 hours): failed to inhibit ERK1/2 activation
- ERK1/2 phosphorylation ex vivo ([5]; cancer cells from pancreatic cancer patient 1, six hours): dramatically blocked ERK1/2 phosphorylation
- phosphorylation of ERK1/2 ex vivo ([5]; cells from resistant tumor A265, erlotinib 5 μM, 6 hours): failed to inhibit ERK1/2 phosphorylation
- phosphorylation of ERK1/2 ex vivo ([5]; cells from tumor A198, erlotinib 5 μM, 6 hours): dramatic inhibition; also recorded: did show inhibition of ERK1/2; also recorded: inhibited ERK1/2 activation
- ERK1/2 activity ex vivo ([5]; tumor cells of pancreatic cancer patient 2 and 3, six hours): did not effectively block ERK1/2 activity
- RTG ([6]; remaining seven tumors (all but A198), erlotinib 50 mg/kg/day i.p., day 28): greater than 50%
- tumor response ([6]; tumor A198): sensitive (Tumor response was defined as sensitive, when RTG was less than 50% on day 28)
- tumor response ([6]; tumor A265): resistant (greater than 50% RTG and were defined as resistant)
